Results on 4 compounds are retold here after patent publication US20160220527A1, “KINASE INHIBITORS FOR THE TREATMENT OF CANCER” (Pitney Pharmaceuticals Pty Limited, priority 2012, published 2016).

The subject of one series is HCT-116. The experiment in a line: SRB cell proliferation assay. The note with it: Homo sapiens; HCT-116, colorectal cancer. In kind it is cell-based. As to the method:
(§1) The human ovarian cancer cell lines OVCAR-3, SKOV-3 and A2780 and primary cells human umbilical vein endothelial cells (HUVEC) and all other cell lines were obtained from the American Type Culture Collection (ATCC) and maintained according to their instructions. Astrocytes and glioma cell lines were kindly gifted by Dr. Kerry McDonald from Lowy Cancer Research Centre, University of New South Wales, Australia.
(§2) Cell proliferation was assessed using the sulforhodamine B (SRB) assay. Cells seeded in 96-well plate (2,000-3,000 cell/well) were treated with MPL (0, 1, 5, 10, 25, 50 and 100 μmol/L) for 72 h. Cells were then fixed, washed and stained with 100 μl of 0.4% (w/v) SRB dissolved in 1% acetic acid. Unbound dye was removed by five washes with 1% acetic acid before air drying. Bound SRB was solubilized with 100 μl of 10 mM Tris base (pH 10.5) and the absorbance read at 570 nm. Exactly the same procedure was used to assess MPL-SO2. Both agents were dissolved in ethanol and diluted with media to give the final concentrations required for cell culture assays.

In a further series the test system is HT-29 5m11. The experiment in a line: SRB cell proliferation assay. Type of series: cell-based. The note with it: Homo sapiens; HT-29 5m11, colorectal cancer. The protocol: as §1, §2
In the next series the test system is HT-29. The experiment in a line: SRB cell proliferation assay. The note with it: Homo sapiens; HT-29, colorectal cancer. In kind it is cell-based. The protocol:
as §1, §2

For another series, the system named is HaCat. The experiment in a line: SRB cell proliferation assay. The following applies: Homo sapiens, keratinocyte. Type of series: cell-based. As to the method: as §1, §2
Another series relates to LN-18. The experiment in a line: SRB cell proliferation assay. In kind it is cell-based. The following applies: Homo sapiens; LN-18, glioma. The protocol:
as §1, §2

In the next series the test system is MCF-7. The experiment in a line: SRB cell proliferation assay. In kind it is cell-based. The following applies: Homo sapiens, MCF7, MCF-7, breast cancer, 72 h. The protocol: as §1, §2
A further series deals with SW-876. The experiment in a line: SRB cell proliferation assay. In kind it is cell-based. The note with it: SW-876, liposarcoma. As to the method: as §1, §2
The subject of another series is T98G. The experiment in a line: SRB cell proliferation assay. Type of series: cell-based. The following applies: Homo sapiens, glioma. As to the method: as §1, §2
The subject of another series is cancer cell lines. Description: SRB cell proliferation assay, comparison across cell lines. In kind it is cell-based. The protocol: as §2
In series [1] the test system is OVCAR-3 or A2780 cells. The experiment in a line: Colony formation assay. In kind it is cell-based, human. The note with it: higher concentrations of MPL; 72 h exposure, 2 weeks drug free. As to the method: For colony formation assay, 5×10^6 cells, such as OVCAR-3 or A2780 cells, were plated in 100 mm Petri dishes and allowed to attach overnight. Media were aspirated off and exponentially growing cells were incubated with various concentrations of MPL for 72 h. At this point, the medium was aspirated, the dishes were washed with PBS, and drug free medium was added to each plate. Media were changed twice weekly for 3 weeks. Following this, plates were gently washed with PBS and cells were fixed with 100% ethanol and stained with a 0.5% solution of filtered crystal violet. Colonies consisting of more than 50 cells were counted under an inverted microscope.
To determine the effect of MPL on cell integrity and capacity to rid itself from drug effects following drug exposure and withdrawal, cells were incubated with MPL (0, 5, 10, 25 μM) for 72 h, washed with PBS, transferred to agar plates, cultured with growth medium and incubated under standard conditions for 2 weeks. Cells were then fixed with 100% methanol and stained with 1% crystal violet. Colonies (Cluster of cells greater than 50) were counted under microscope (magnification ×5). Number of colonies counted for different experimental groups is expressed as percentage of the control (FIG. 14).

Series [2] concerns OVCAR-3 or A2780 cells. Description: Cell cycle analysis by flow cytometry. The note with it: 25 μM MPL. Type of series: cell-based, human. As to the method: The effect of MPL on the cell cycle was determined using standard flow cytometry analysis protocols and procedures. Briefly, 0.7×10^6 million cells seeded in 25 cm^3 flasks and allowed to adhere overnight were treated with MPL for 24 or 48 h. Cells were collected with trypsinization and pooled with the cells floating in the medium. The cell suspensions were centrifuged, washed with PBS and fixed with methanol. Cells were then washed, resuspended in propodium iodide and ribonuclease A in PBS for 30 min at room temperature and analyzed by flow cytometry (Becton Dickinson FACSort).
(Flow cytometry measures light scatter and fluorescence of single cells or particles in a stream.)

The test system of series [3] is cdk2, cdk4, cyclins A, and E. Description: Western blot of cell cycle regulatory proteins. In kind it is cell-based. The following applies: MPL 0, 5, 10, 25 μM. As to the method: Protein expression in cells was determined using western blot analysis. After treatment with the indicated concentrations of MPL, cell lysates were prepared and probed with antibodies for cdk2, cdk4, cyclin A, cyclin E, PARP-1 (1:1000 dilutions; Cell Signalling Technology), and p53 (1:200 dilutions; Santa Cruz Biotechnology).

Series [4] deals with OVCAR-3 or A2780 cells. The experiment in a line: Cellular ATP levels and ADP/ATP ratio. In kind it is cell-based, human.
In a further series the test system is U87 glioma cells. Description: Autophagy (vacuole formation, LC3-II). Type of series: cell-based. The following applies: chemo-resistant U87 glioma cells.
Another series has as its system OVCAR-3 tumors. The experiment in a line: s.c. OVCAR-3 xenografts in nude mice. The following applies: for s.c. tumor growth: i.p., three times weekly. In kind it is in vivo. The protocol: Female nude mice (6 weeks old) were purchased from Biological Resources (University of New South Wales). Institutional animal ethics approvals covered procedures carried out on mice. Briefly, 2.5×10^6 log-phase growing OVCAR-3 cells were injected s.c. into the left flank of each mouse. Animals were weighed once weekly while their tumor volumes were determined twice weekly. Tumor growth was monitored by caliper measurements of orthogonal diameters, and the estimated tumor volume was calculated based on the formula […], where width is the shorter of the two orthogonal measurements. Based on institutional ethics approval, mice were euthanized before the tumor volume reached 500 mm3. Treatment was initiated on day 8 post tumor cell inoculation when mice were randomized and assigned to one of MPL or vehicle treated groups (5-6 mice per group). MPL was suspended in […] methylcellulose (0.5% w/v HPMC), sterilized by sonnicator and administered every other day either intraperitoneally (i.p) or orally as gavage (100 μL).
In the first pilot trial, the drug was administered i.p. at 2.5 or 25 mg/kg body weight, three times weekly for 2 weeks.
Following the outcome, in the next set of animals, the dose was increased to 25 and 50 mg/kg, three times weekly.
In the last (third) pilot study, mice were treated orally. The doses administered were 50 and 100 mg/kg three times weekly. In all these trials, mice in control groups received similar volume of the vehicle (0.5% HPMC). Tumor histology/immunohistochemistry was performed on formalin fixed tumor slices according to standard procedures.

In a further series the test system is nicotinic receptors. The experiment in a line: MPL antiproliferative effect after pre-treatment with nicotinic agonists or antagonists. Type of series: cell-based. The note with it: 30 min pre-treatment, MPL 5 μM, 72 h. As to the method: Cells were pre-treated (30 min) with increasing concentrations of nicotine, carbachol or the receptor antagonists, atropine, mecamylamine, tubocurarine, and α-bungarotoxin. MPL (5 μM) was added and left in the cell culture incubator for 72 h. Each drug concentration was tested in quadruplicate and each experiment was repeated twice. Combine values (mean±SEM) are presented as % control.

A further series concerns cancer cell-lines. The experiment in a line: Thymidine incorporation. Type of series: cell-based. For orientation: Incorporation of labelled thymidine or its analogues reports DNA synthesis.
For series [5] the following is noted: mammals; cited from earlier work.
In a further series the test system is A2780. The experiment in a line: SRB cell proliferation assay. In kind it is cell-based. The following applies: Table 3, AAD series, human epithelial ovarian cancer. As to the method: as §1, §2
The subject of a further series is CHO. The experiment in a line: SRB cell proliferation assay. The following applies: Cricetulus griseus, Table 3, AAD series, Chinese hamster ovarian cells. Type of series: cell-based. As to the method: as §1, §2
The next series deals with HUVEC. The experiment in a line: SRB cell proliferation assay. Type of series: cell-based. The note with it: Homo sapiens, Table 3, AAD series, human umbilical vein endothelial cells. The protocol:
as §1, §2

For a further series, the system named is OVCAR-3. Description: SRB cell proliferation assay. Type of series: cell-based. The following applies: Table 3, AAD series, human epithelial ovarian cancer. As to the method:
as §1, §2

For `C[C@](C#N)(COc1cc(C#N)ccc1C(F)(F)F)NC(=O)c1ccc(SC(F)(F)F)cc1` [MPL, N-[(1S)-1-cyano-2-(5-cyano-2-trifluoromethyl-phenoxy)-1-methyl-ethyl]-4-trifluoromethylsulfanyl-benzamide], the IC50 in the series on HCT-116 is 10.5 ± 0.02 µM; with HT-29 5m11 it was 10.4 µM; in the series on HT-29, 5.86 ± 0.2 µM; with HaCat, 21.2 ± 3.2 µM; in the series on LN-18, 9.38 ± 0.79 µM; in the series on MCF-7, 15.4 ± 1.1 µM. The values for the IC50 in the series on SW-876 and in the series with T98G were 14.6 µM and 18.2 ± 0.61 µM, respectively. Also, the “sensitivity of chemo-resistant cell lines to antiproliferative action” value in the series on cancer cell lines (ovarian chemo-resistant, glioma temozolomide resistant, breast cancer tamoxifen resistant cells) is listed as “sensitive”. In addition, in the series on OVCAR-3 or A2780 cells [1], the clonogenic ability result is given as “almost complete loss of clonogenic ability”. In the series with OVCAR-3 or A2780 cells [2], the “percentage of cells in G2-M phase” value is listed as “more than three times higher”. Besides, the “expression of cell cycle regulatory proteins” value in series [3] is “lower levels of cdk2, cdk4, cyclins A, and E”. Moreover, the “cellular ratio of ADP/ATP” value in the series on OVCAR-3 or A2780 cells [4] is “reduces the cellular ratio of ADP/ATP”. Moreover, in the series on U87 glioma cells, the “expression of LC3-II (autophagy)” value is on record as “increased expression of LC3-II in a concentration-dependent manner”. For the same compound, in the series on OVCAR-3 tumors (MPL treated tumors from the in vivo trials), the tumor tissue histology result was “extensive necrosis”. Besides, the s.c. tumor growth result in the series with OVCAR-3 tumors (first trial, 25 mg/kg, female nude mice) is “particularly effective”; with OVCAR-3 tumors (second trial, 50 mg/kg compared with 25 mg/kg), “more effective in retarding tumor growth”. In addition, the “MPL-induced inhibition of proliferation after pre-treatment with nicotinic agonists or antagonists” value in the series on nicotinic receptors is “neither positively nor negatively affected”. In addition, the “thymidine incorporation into the cell (DNA synthesis)” value in the series on cancer cell-lines was “Blocks thymidine incorporation”. Moreover, the dosage well tolerated in series [5] is on record as 1000 mg of MPL per kg of body weight per 24 hours.
On to `CC(C#N)(COc1ccccc1Cl)NC(=O)c1ccc(C(F)(F)F)cc1` (centres unmarked) [AAD 450], for which the IC50 in the series with A2780 was found to be 33.5 ± 8.5 µM; in the series on CHO, 45.9 µM; in the series on HUVEC, 96.5 µM; in the series with OVCAR-3 it was 23.9 ± 1.45 µM.
Taken in the same sequence, the figures for `CC(C#N)(COc1cc(Cl)ccc1Cl)NC(=O)c1ccc(OC(F)(F)F)cc1` (centres unmarked) [AAD 1154] were 28 ± 4.5 µM, 34.8 µM, 61.1 µM and 20.5 ± 0.5 µM.
Consider `C[C@](C#N)(COc1cc(C#N)ccc1C(F)(F)F)NC(=O)c1ccc(S(=O)(=O)C(F)(F)F)cc1` [MPL-SO2, monepantel sulphone], for which the “potency compared with MPL” value with cancer cell lines (SRB proliferation assay) is reported as “as potent as MPL”.

As usually defined, the IC50 is the concentration at which inhibition is half-maximal.
